Measurements reported in patent US20220047587A1, “SYNERGISTIC COMPOSITIONS COMPRISING R-2-(SUBSTITUTED-SULFONYL)-HEXAHYDRO-PYRROLO[1,2-A]PYRAZIN-6(2H)-ONES AND S-2-(SUBSTITUTED-SULFONYL)-HEXAHYDRO-PYRROLO[1,2-A]PYRAZIN-6(2H)-ONES IN A NON-RACEMIC RATIO” (Metys Pharmaceuticals AG, priority 2018, published 2022).
Marks after values point to notes of the source that are not given here.

Key:
paclitaxel-treated rats = test: Paclitaxel-induced peripheral sensory neuropathy model, hyperalgesia (paw pressure) after i.v. administration; format: in vivo, rat
From the text: (§1) Results are expressed as the minimum dose (via the indicated route) at which a statistically-significant difference is observed when compared to time-matched injured rats receiving a vehicle administration by the same route. An analysis of variance, ANOVA, followed by Fisher's protected least significant difference procedure for post hoc comparison, was used to verify significance between two means of hyperalgesic behavioral results from the Randall & Selitto apparatus paw pressure test (“anti-hyperalgesia”) or from the Von Frey test (“mechanical allodynia”) or from the Cold Plate test (“cold allodynia”). P values 0.05 were considered significant. This definition applies to any doses specified herein as inhibiting “in a statistically significant manner”.
(§2) Paw mechanical sensitivity was determined using a Randall & Selitto apparatus (Randall and Selitto, 1957) exerting a force that increases at constant rate (32 g/s). The stimulus causing paw withdrawal was evaluated before and at different times after treatment. Results represent the mean of mechanical thresholds for paw withdrawal expressed as grams. To avoid possible damage to the rat paw the maximum applied force was set at 240 g. In the single administration protocol, paw pressure tests were performed before (pre-dose) and at regular intervals after treatment.
Paclitaxel (2 mg/kg i.p.) was administered on days 1, 3, 5 and 8. Test compounds were dissolved in saline and administered intravenously at the dose of 1 mg/kg to adult male Sprague-Dawley rats (Charles River, Italy, 220-250 g weight). Data were obtained at 0-75 minutes after injection and are expressed as the mean±s.e.m. of six animals. *P<0.05 and **<0.01 vs vehicle+paclitaxel treated rats; °P<0.05 and ^°°P<0.01 vs. NT24336 (R) treated group. […] *P<0.05 and **<0.01 vss vehicle+paclitaxel treated rats.

[1] = test system: streptozotocin-treated mice; test: Streptozotocin diabetic peripheral neuropathy model, thermal hyperalgesia after oral administration; format: in vivo, mouse; settings: p.o.
From the text: as §1
Mice (=30 g) were injected intravenously in the tail with 200 mg/kg streptozotocin (Wako Pure Chemicals, Richmond, Va.) prepared in saline adjusted to pH 4.5 in 0.1 N citrate buffer. Age-matched non-diabetic control mice were injected with the vehicle alone. Streptozotocin solutions were freshly prepared due to the limited stability of the compound. Animals were kept in a group of four per cage with special care of food and water supplement. The bed of the cage was changed every day. […] The serum glucose level was measured by glucose oxidase method from blood samples obtained by tail vein pricking. […] Animals at 7 days post-streptozotocin treatment were used in the study. […] Injections were performed using a Hamilton microliter syringe fitted with a 26-gauge needle, according to the method of Haley and McCormick (1957). The site of injection was 2 mm caudal and 2 lateral to the bregma, and 3 mm in depth from the skull surface. The injection volume was 5 μl.

MIA-treated rats = test: MIA-induced knee osteoarthritis model, mechanical hyperalgesia after i.v. administration; format: in vivo, rat
From the text: as §1, §2
A single intra-articular injection of sodium monoiodoacetate (MIA) was introduced into the knee joint of rats according to the method described by Fernihough J et al., 2004. Sodium monoiodoacetate (MIA) inhibits chondrocyte metabolism leading to cartilage degradation in form of osteoarthritic-like focal lesions in the cartilage associated with subchondral bone thickening 14 days after administration (Guingamp et al., 1997). This model therefore can easily and quickly reproduce osteoarthritic-like lesions and functional impairment in rats, similar to that observed in human disease (Guzman et al., 2003). After 7 days post-injection, the inflammatory component subsides and the remaining pain is considered neuropathic in nature. Briefly, rats were deeply anaesthetized with diethyl ether. Following abolition of the hind paw pinch withdrawal reflex, a 27-gauge needle was introduced into the joint cavity between the tibial plateau and femoral condyles. Once in place, 2 mg of MIA were diluted in a volume of […] of 1% CMC (carboxymethylcellulose in water, Sigma-Aldrich, Italy) and injected into one knee joint and the rat was allowed to recover for 14 days prior to pain assessment.

CCI rats = test: Chronic constriction injury (CCI) model, mechanical allodynia after oral administration; format: in vivo, rat; settings: p.o.
From the text: as §1
Each animal was placed in a chamber with a mesh metal floor covered by a plastic dome that enabled the animal to walk freely, but not to jump. The mechanical stimulus was then delivered in the mid-plantar skin of left hind paw using an electronic von Frey apparatus (37400 Dynamic Plantar Aesthesiometer, Ugo Basile, Comerio, Varese, Italy). The cut-off was set at 50 g, while the increasing force rate (ramp duration) was set at 20 s. In the single administration protocol, pain threshold measurements have been performed before (pre-dose) and at regular intervals after treatment. In the repeated treatment protocol, the pre-test value was measured 13 h after the last administration; afterward the animals received a new administration and measures were performed at the described times. Results are expressed in […] and represent the mean±S.E.M. of mechanical thresholds.
To evaluate the effect of test compounds in comparison to vehicle or selected comparators on mechanical hyperalgesia, the chronic constriction injury models in rats, a widely accepted model of painful neuropathy (Wang and Wang, 2003) was chosen.
Neuropathy was induced according to the procedure described by Bennett and Xie ([…]). Briefly, rats were anaesthetized with chloral hydrate 400 mg/kg i.p. under aseptic conditions, the right common sciatic nerve was exposed at the level of the middle thigh by blunt dissection. Proximal to the trifurcation, the nerve was carefully freed from the surrounding connective tissue and four chromic cat gut ligatures (4-0, Ethicon, Norderstedt, Germany) were tied loosely around it with about 1 mm spacing. After hemostasis was confirmed, the incision was closed in layers. Then animals were allowed to recover from anesthesia and surgery and were kept one per cage with free access to water and standard laboratory chow. This procedure induces the appearance of hyperalgesia and allodynia in response to mechanical stimuli, which are evident 2-5 days after injury and reach their maximum severity in about 14 days.

oxaliplatin-treated rats = test: Oxaliplatin-induced peripheral sensory neuropathy model, hyperalgesia after oral administration; format: in vivo, rat; settings: p.o.
From the text: as §1, §2
Peripheral sensory neuropathy was induced in adult rats, by administration of oxaliplatin (Tocris) at […] i.p. in saline once daily for 5 consecutive days every week for three weeks (cumulative dose 36 mg/kg) according to Cavaletti et al., 2001. Starting from day 21 after the first oxaliplatin administration, the effect of repeated oral administration of racemic unifiram or the preferred inventive composition with an enantiomeric excess of (R)-unifiram of 50% corresponding to a 3:1 (R):(S) ratio of the enantiomers on oxaliplatin-induced mechanical hyperalgesia was assessed.

vincristine-treated rats = test: Vincristine-induced peripheral sensory neuropathy model, hyperalgesia after oral administration; format: in vivo, rat; settings: p.o.
From the text: as §1, §2

scopolamine-treated mice = settings: s.c., passive avoidance, cited from earlier work; for Amnesia reversal, %: at the lowest significant dose

Compound | Lowest dose at which paclitaxel-induced hyperalgesia is inhibited in a statistically significant manner (P < 0.05) (paclitaxel-treated rats; 15 min after administration) | Lowest dose at which paclitaxel-induced hyperalgesia is inhibited in a statistically significant manner (P < 0.05) (paclitaxel-treated rats; 30 min after administration) | Lowest dose at which paclitaxel-induced hyperalgesia is inhibited in a statistically significant manner (P < 0.05) (paclitaxel-treated rats; 45 min after administration) | Lowest dose at which streptozotocin-induced diabetese-like thermal hyperalgesia is inhibited in a statistically significant manner (P < 0.05) ([1]; 30 min after administration) | Lowest dose at which streptozotocin-induced diabetese-like thermal hyperalgesia is inhibited in a statistically significant manner (P < 0.05) ([1]; 60 min after administration) | Lowest dose at which streptozotocin-induced diabetese-like thermal hyperalgesia is inhibited in a statistically significant manner (P < 0.05) ([1]; 90 min after administration) | Amnesia reversal, % (scopolamine-treated mice) | Lowest Dose at which scopolamine-induced amnesia is reversed in a statistically significant manner (P < 0.01) (scopolamine-treated mice) | further results
O=C1CCC2CN(S(=O)(=O)c3cccc(F)c3)CCN12 (centres unmarked) [NT-24782, 2-(3-fluorophenyl)sulfonyl-hexahydropyrrolo[1,2-a]pyrazin-6(2H)-one] | >3 mg/kg | >3 mg/kg | >3 mg/kg | – | – | – | – | – | –
CNCC[C@H](Oc1cccc2ccccc12)c1cccs1 [Duloxetine, reference compound] | – | – | – | 30 mg/kg | 30 mg/kg | 30 mg/kg | – | – | Lowest dose at which streptozotocin-induced diabetese-like thermal hyperalgesia is inhibited in a statistically significant manner (P < 0.05) ([1]; 120 min after administration): 30 mg/kg
O=C1CCC2CN(S(=O)(=O)c3cccc(F)c3)CCN12 (centres unmarked) [NT-24337, 2-(3-fluorophenyl)sulfonyl-hexahydropyrrolo[1,2-a]pyrazin-6(2H)-one] | 3 mg/kg | 3 mg/kg | 3 mg/kg | 10 mg/kg | 10 mg/kg | 10 mg/kg | – | – | Lowest dose at which MIA-induced mechanical hyperalgesia is inhibited in a statistically significant manner (P < 0.05) (MIA-treated rats; 15 min after administration): 3 mg/kg; Lowest dose at which MIA-induced mechanical hyperalgesia is inhibited in a statistically significant manner (P < 0.05) (MIA-treated rats; 30 min after administration): 3 mg/kg; Lowest dose at which MIA-induced mechanical hyperalgesia is inhibited in a statistically significant manner (P < 0.05) (MIA-treated rats; 45 min after administration): 3 mg/kg; Lowest dose at which CCI-induced mechanical allodynia is inhibited in a statistically significant manner (P < 0.05) (CCI rats; 30 min after administration): 1 mg/kg; Lowest dose at which CCI-induced mechanical allodynia is inhibited in a statistically significant manner (P < 0.05) (CCI rats; 60 min after administration): 1 mg/kg; Lowest dose at which CCI-induced mechanical allodynia is inhibited in a statistically significant manner (P < 0.05) (CCI rats; 90 min after administration): 3 mg/kg
O=C1CC[C@@H]2CN(S(=O)(=O)c3ccccc3F)CCN12 [NT-24336, 2-(2-fluorobenzenesulfonyl)hexahydropyrrolo[1,2-a]pyrazin-6-one] | 3 mg/kg | 3 mg/kg | 3 mg/kg | 30 mg/kg | 30 mg/kg | 30 mg/kg | – | – | Lowest dose at which MIA-induced mechanical hyperalgesia is inhibited in a statistically significant manner (P < 0.05) (MIA-treated rats; 15 min after administration): 3 mg/kg; Lowest dose at which MIA-induced mechanical hyperalgesia is inhibited in a statistically significant manner (P < 0.05) (MIA-treated rats; 30 min after administration): 3 mg/kg; Lowest dose at which MIA-induced mechanical hyperalgesia is inhibited in a statistically significant manner (P < 0.05) (MIA-treated rats; 45 min after administration): 3 mg/kg; Lowest dose at which streptozotocin-induced diabetese-like thermal hyperalgesia is inhibited in a statistically significant manner (P < 0.05) ([1]; 120 min after administration): 30 mg/kg; Lowest dose at which oxaliplatin-induced hyperalgesia is inhibited in a statistically significant manner (P < 0.05) (oxaliplatin-treated rats; 30 min after administration): 1 mg/kg; Lowest dose at which oxaliplatin-induced hyperalgesia is inhibited in a statistically significant manner (P < 0.05) (oxaliplatin-treated rats; 60 min after administration): 1 mg/kg; Lowest dose at which oxaliplatin-induced hyperalgesia is inhibited in a statistically significant manner (P < 0.05) (oxaliplatin-treated rats; 90 min after administration): 1 mg/kg; Lowest dose at which oxaliplatin-induced hyperalgesia is inhibited in a statistically significant manner (P < 0.05) (oxaliplatin-treated rats; 120 min after administration): >10 mg/kg; Lowest dose at which CCI-induced mechanical allodynia is inhibited in a statistically significant manner (P < 0.05) (CCI rats; 30 min after administration): 1 mg/kg; Lowest dose at which CCI-induced mechanical allodynia is inhibited in a statistically significant manner (P < 0.05) (CCI rats; 60 min after administration): 3 mg/kg; Lowest dose at which CCI-induced mechanical allodynia is inhibited in a statistically significant manner (P < 0.05) (CCI rats; 90 min after administration): 3 mg/kg; Lowest dose at which vincristine-induced hyperalgesia is inhibited in a statistically significant manner (P < 0.05) (vincristine-treated rats; 30 min after administration): 10 mg/kg; Lowest dose at which vincristine-induced hyperalgesia is inhibited in a statistically significant manner (P < 0.05) (vincristine-treated rats; 60 min after administration): 10 mg/kg; Lowest dose at which vincristine-induced hyperalgesia is inhibited in a statistically significant manner (P < 0.05) (vincristine-treated rats; 90 min after administration): 10 mg/kg; Lowest dose at which vincristine-induced hyperalgesia is inhibited in a statistically significant manner (P < 0.05) (vincristine-treated rats; 120 min after administration): >10 mg/kg
O=C1CCC2CN(S(=O)(=O)c3ccc(F)cc3)CCN12 (racemic) [NT-24617, (RS)-2-[(4-fluorophenyl)sulfonyl]hexahydropyrrolo[1,2-a]pyrazin-6-one] | 3* mg/kg | 3 mg/kg | 3 mg/kg | – | – | – | 100% | 0.001 mg/kg | Lowest dose at which paclitaxel-induced hyperalgesia is inhibited in a statistically significant manner (P < 0.05) (paclitaxel-treated rats; 60 min after administration): >3 mg/kg
O=C1CCC2CN(S(=O)(=O)c3ccc(F)cc3)CCN12 (centres unmarked) [NT-24266, 2-(4-fluorophenyl)sulfonyl-hexahydropyrrolo[1,2-a]pyrazin-6(2H)-one] | 1 mg/kg | 3 mg/kg | >10 mg/kg | – | – | – | 75% | 0.001 mg/kg | –
O=C1CCC2CN(S(=O)(=O)c3ccc(F)cc3)CCN12 (centres unmarked) [NT-24234, 2-(4-fluorophenyl)sulfonyl-hexahydropyrrolo[1,2-a]pyrazin-6(2H)-one] | 1 mg/kg | 3 mg/kg | >10 mg/kg | – | – | – | 78% | 0.003 mg/kg | –
